Measured values from ChEMBL document CHEMBL1938266, “A three-step protocol for lead optimization: quick identification of key conformational features and functional groups in the SAR studies of non-ATP competitive MK2 (MAPKAPK2) inhibitors” (Bioorg Med Chem Lett, 2012).

Assays:
[1] = target: T1, MAP kinase-activated protein kinase 2 (Homo sapiens, UniProt P49137); experiment: Inhibition of human MK2
[2] = target: T1, MAP kinase-activated protein kinase 2; experiment: Inhibition of MK2-mediated HSP27 phosphorylation by cell-based assay
THP-1 = experiment: Inhibition of LPS-stimulated TNFalpha production in human THP1 cells by ELISA; format: functional, cell-based

T1 sequence (P49137 whole entry): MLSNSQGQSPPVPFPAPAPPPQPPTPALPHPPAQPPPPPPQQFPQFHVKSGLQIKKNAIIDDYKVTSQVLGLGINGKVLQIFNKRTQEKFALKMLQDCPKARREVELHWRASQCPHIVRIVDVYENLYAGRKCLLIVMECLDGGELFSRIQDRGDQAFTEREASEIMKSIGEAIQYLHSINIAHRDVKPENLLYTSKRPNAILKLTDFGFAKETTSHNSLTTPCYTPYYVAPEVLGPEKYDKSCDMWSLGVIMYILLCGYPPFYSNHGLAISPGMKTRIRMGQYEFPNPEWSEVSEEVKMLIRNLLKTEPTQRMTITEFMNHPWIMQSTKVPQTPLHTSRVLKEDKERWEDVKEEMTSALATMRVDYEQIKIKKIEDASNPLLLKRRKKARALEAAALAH

IC50 ([1]; read-out: IC50) [nM]	EC50 [2] [nM]	EC50 (THP-1) [nM]	IC50 [1]	Compound
258	–	–	–	Cc1cccc(C)c1-c1ccccc1CN(C(=O)c1ccc(-c2ccc(C#N)cc2)o1)c1ccc(N2CCNCC2)cc1
110	350	5000	–	O=C(c1ccc(-c2ccc(Cl)cc2)o1)N(Cc1ccccn1)c1ccc(N2CCNCC2)cc1
115	–	–	–	N#Cc1ccc(-c2ccc(C(=O)N(Cc3ccccn3)c3ccc(N4CCNCC4)cc3)o2)cc1
4740	–	–	–	O=C(c1ccc(-c2ccc(Cl)cc2)o1)N(Cc1ccccn1)C1CCC(N2CCNCC2)CC1 (centres undefined)
10000	–	–	–	CN1CCN(CCCN(Cc2ccccn2)C(=O)c2ccc(-c3ccc(C#N)cc3)o2)CC1
10000	–	–	–	N#Cc1ccc(-c2ccc(C(=O)N(Cc3ccccn3)C3CCNCC3)o2)cc1
79	–	–	–	Cc1cccc(CN(C(=O)c2ccc(-c3ccc(C#N)cc3)o2)c2ccc(N3CCNCC3)cc2)n1
–	–	–	Not Active	Cc1cccc(CN(C(=O)c2ccc(-c3ccc(Cl)cc3)o2)c2cccc(N3CCNCC3)c2)n1
–	–	–	Not Active	Cc1cccc(CN(C(=O)c2ccc(-c3ccc(Cl)cc3)o2)c2ccccc2N2CCNCC2)n1
41	–	6690	–	N#Cc1ccc(-c2ccc(C(=O)N(Cc3ccc(-c4ccccc4)cc3)c3ccc(N4CCNCC4)cc3)o2)cc1
70	–	28100	–	N#Cc1ccc(-c2ccc(C(=O)N(Cc3cccc(-c4ccccc4)c3)c3ccc(N4CCNCC4)cc3)o2)cc1
9	–	3460	–	N#Cc1ccc(-c2ccc(C(=O)N(Cc3ccccc3-c3ccccc3)c3ccc(N4CCNCC4)cc3)o2)cc1
1920	–	–	–	N#Cc1ccc(-c2ccc(C(=O)N(Cc3ccc(-c4ccccc4F)cc3)c3ccc(N4CCNCC4)cc3)o2)cc1
1450	–	–	–	N#Cc1ccc(-c2ccc(C(=O)N(Cc3cccc(-c4ccccc4F)c3)c3ccc(N4CCNCC4)cc3)o2)cc1
12	–	–	–	N#Cc1ccc(-c2ccc(C(=O)N(Cc3ccccc3-c3ccccc3F)c3ccc(N4CCNCC4)cc3)o2)cc1
128	–	–	–	N#Cc1ccc(-c2ccc(C(=O)N(Cc3ccc(-c4ccncc4)cc3)c3ccc(N4CCNCC4)cc3)o2)cc1
110	–	–	–	N#Cc1ccc(-c2ccc(C(=O)N(Cc3cccc(-c4ccncc4)c3)c3ccc(N4CCNCC4)cc3)o2)cc1
12	–	8400	–	N#Cc1ccc(-c2ccc(C(=O)N(Cc3ccccc3-c3ccncc3)c3ccc(N4CCNCC4)cc3)o2)cc1
285	–	–	–	Cc1ccccc1-c1ccccc1CN(C(=O)c1ccc(-c2ccc(C#N)cc2)o1)c1ccc(N2CCNCC2)cc1

IC50 ([1]; read-out: IC50) [nM]	EC50 [2] [nM]	EC50 (THP-1) [nM]	IC50 [1]	Compound
21	–	1770	–	Cc1noc(C)c1-c1ccccc1CN(C(=O)c1ccc(-c2ccc(C#N)cc2)o1)c1ccc(N2CCNCC2)cc1
8	–	2950	–	N#Cc1ccc(-c2ccc(C(=O)N(Cc3ccccc3-c3ccc(C#N)cc3)c3ccc(N4CCNCC4)cc3)o2)cc1
19	–	1590	–	N#Cc1ccc(-c2ccc(C(=O)N(Cc3ccccc3-c3cccc(C#N)c3)c3ccc(N4CCNCC4)cc3)o2)cc1
12	–	–	–	COc1cccc(-c2ccccc2CN(C(=O)c2ccc(-c3ccc(C#N)cc3)o2)c2ccc(N3CCNCC3)cc2)c1
9	–	1240	–	N#Cc1ccc(-c2ccc(C(=O)N(Cc3ccccc3-c3cccnc3)c3ccc(N4CCNCC4)cc3)o2)cc1
14	–	2540	–	N#Cc1ccc(-c2ccc(C(=O)N(Cc3ccccc3-c3ccccn3)c3ccc(N4CCNCC4)cc3)o2)cc1
27	–	880	–	N#Cc1ccc(-c2ccc(C(=O)N(Cc3ccccc3-c3cncnc3)c3ccc(N4CCNCC4)cc3)o2)cc1
20	–	1800	–	COc1cncc(-c2ccccc2CN(C(=O)c2ccc(-c3ccc(C#N)cc3)o2)c2ccc(N3CCNCC3)cc2)c1
8	–	310	–	COc1ccncc1-c1ccccc1CN(C(=O)c1ccc(-c2ccc(C#N)cc2)o1)c1ccc(N2CCNCC2)cc1
43	–	–	–	COc1ccc(-c2ccccc2CN(C(=O)c2ccc(-c3ccc(C#N)cc3)o2)c2ccc(N3CCNCC3)cc2)cn1
24	–	–	–	COc1cc(-c2ccccc2CN(C(=O)c2ccc(-c3ccc(C#N)cc3)o2)c2ccc(N3CCNCC3)cc2)ccn1
52	–	–	–	COc1ncc(-c2ccccc2CN(C(=O)c2ccc(-c3ccc(C#N)cc3)o2)c2ccc(N3CCNCC3)cc2)cn1
20	–	1960	–	COc1ccccc1-c1ccccc1CN(C(=O)c1ccc(-c2ccc(C#N)cc2)o1)c1ccc(N2CCNCC2)cc1
12	–	734	–	COc1ccccc1-c1ncccc1CN(C(=O)c1ccc(-c2ccc(C#N)cc2)o1)c1ccc(N2CCNCC2)cc1
9	–	1590	–	COc1ccncc1-c1ncccc1CN(C(=O)c1ccc(-c2ccc(C#N)cc2)o1)c1ccc(N2CCNCC2)cc1
100	–	–	–	N#Cc1ccc(-c2ccc(C(=O)N(Cc3cccnc3-c3cncnc3)c3ccc(N4CCNCC4)cc3)o2)cc1
258	–	–	–	N#Cc1ccc(-c2ccc(C(=O)N(Cc3ccccc3-c3ccccc3)c3ccc(N4CCNCC4)cc3)o2)cn1
177	–	–	–	N#Cc1ccc(-c2ccc(C(=O)N(Cc3ccccc3-c3cccnc3)c3ccc(N4CCNCC4)cc3)o2)cn1
